pIC50: −log10 of the molar value.
Target: Tyrosine-protein kinase JAK2 (Homo sapiens, UniProt O60674)
Assay: JAK2 Inhibition Assay: Compounds of Formula I were screened for their ability to inhibit JAK2 using the general enzyme inhibition assay method, in which the assay mixture contained 1 mM ATP, 10 μM Omnia® Y7 peptide (Catalog # IVGN KNZ3071C, Invitrogen Corporation, Carlsbad, Calif.) and 4 nM JAK2 in a total volume of 25 μL. JAK2 was purchased from Invitrogen Corporation, Carlsbad, Calif. (catalog # IVGN PV4288).

Tyrosine-protein kinase JAK2, sequence (O60674 whole entry): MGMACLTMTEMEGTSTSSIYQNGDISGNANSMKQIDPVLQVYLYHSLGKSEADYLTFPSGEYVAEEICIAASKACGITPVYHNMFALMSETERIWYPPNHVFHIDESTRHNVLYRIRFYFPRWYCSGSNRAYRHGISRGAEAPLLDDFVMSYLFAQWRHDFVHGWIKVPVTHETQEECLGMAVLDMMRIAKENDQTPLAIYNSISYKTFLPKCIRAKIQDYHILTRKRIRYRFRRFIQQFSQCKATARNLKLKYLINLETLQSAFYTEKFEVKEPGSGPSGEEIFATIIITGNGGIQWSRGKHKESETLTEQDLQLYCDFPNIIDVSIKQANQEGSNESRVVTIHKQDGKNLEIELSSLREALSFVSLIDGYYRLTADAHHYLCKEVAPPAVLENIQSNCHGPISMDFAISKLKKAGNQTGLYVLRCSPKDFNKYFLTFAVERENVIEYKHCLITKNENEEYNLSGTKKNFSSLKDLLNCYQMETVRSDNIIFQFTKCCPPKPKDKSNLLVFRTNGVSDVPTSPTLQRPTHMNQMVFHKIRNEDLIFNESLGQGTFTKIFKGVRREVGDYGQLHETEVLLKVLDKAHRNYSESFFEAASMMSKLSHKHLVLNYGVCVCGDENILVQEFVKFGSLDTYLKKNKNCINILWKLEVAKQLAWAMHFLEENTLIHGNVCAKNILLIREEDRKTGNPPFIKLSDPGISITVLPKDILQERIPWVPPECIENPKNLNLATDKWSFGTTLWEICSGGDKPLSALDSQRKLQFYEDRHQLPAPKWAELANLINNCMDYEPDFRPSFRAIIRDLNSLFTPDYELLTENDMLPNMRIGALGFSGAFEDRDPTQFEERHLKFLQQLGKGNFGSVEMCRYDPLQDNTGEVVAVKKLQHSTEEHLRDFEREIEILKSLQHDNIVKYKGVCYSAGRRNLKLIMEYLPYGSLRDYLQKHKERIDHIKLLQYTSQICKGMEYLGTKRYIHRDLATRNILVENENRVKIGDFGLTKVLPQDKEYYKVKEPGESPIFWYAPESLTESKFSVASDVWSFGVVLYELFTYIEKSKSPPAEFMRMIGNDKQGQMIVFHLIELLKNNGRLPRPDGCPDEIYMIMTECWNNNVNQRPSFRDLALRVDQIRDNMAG

pIC50: > 8.00
Compound: CCC(CC)n1cc(-c2nc(-c3cnn([C@H]4C[C@](O)(CO)C4)c3)cn3nccc23)cn1

Source: ChEMBL document CHEMBL5728516, “4,6-substituted-pyrazolo[1,5-a]pyrazines as janus kinase inhibitors” (2021)
